Test system: liver cDNAs of adult male LMB
Assay: LMB gene arrays of SSH-derived cDNAs: liver of fish treated with androgens
Assay type: in vivo, largemouth bass (LMB)
Settings: DHT 62.5 μg/g, 11-KT 20 μg/g vs DMSO
Description: For each cDNA clone, the general background of each membrane was subtracted from the average value of the duplicate spots on the membrane. The values were then normalized to the average value of seven cDNA clones specific to ribosomal genes and the fold change calculated by dividing the mean of each treatment by the mean of the control. Those genes which changed by 2-fold or more were graphed. Significant differences (p<0.05) were determined by ANOVA and secondary testing was done by using […].

`C[C@]12CC(=O)[C@H]3[C@@H](CCC4=CC(=O)CC[C@@]43C)[C@@H]1CC[C@@H]2O` [11-KT, 11-ketotestosterone] was tested, and the “24-1 (LOC L1) change” value was “down”, the “ALPHA TUBULIN (LOC M2) change” value was “down” and the “COMPLEMENT C3 (LOC L3) change” value was “down”. For the same compound, the “CYSTATIN (LOC O3) change” value was “down-regulated”, the “ER GAMMA 5′ 2F (LOC L14) change” value was “down” and the “EST SEASONAL 9 (LOC D13) change” value was “up (Those genes which changed by 2-fold or more were graphed)”. The “EST SEASONAL 51 (LOC K11) change” value was “down”, the “EST SEASONAL 55 (LOC M4) change” value was “down” and the “EST SEASONAL 62 (LOC B14) change” value was “up (Those genes which changed by 2-fold or more were graphed)”. For the same compound, the “EST SEASONAL 64 (LOC H7) change” value was “up (Those genes which changed by 2-fold or more were graphed)”, the “EST SEASONAL 72 (LOC K12) change” value was “down” and the “EST SEASONAL F21 (LOC O13) change” value was “down”. The “ESTP4_H07 (LOC K13) change” value was “up (Those genes which changed by 2-fold or more were graphed)”, the “GP3 11C (LOC K1) change” value was “down” and the “LDL RC (LOC J10) change” value was “down”. For the same compound, the “LMB24-1 (Unknown) differentially expressed by androgens” value was “dn-reg DHT;”, the “LMB151 vitellogenin receptor differentially expressed by” value was “Dn-reg” and the “LMB CYSTATIN-PREC (Cystatin precursor) differentially expressed by” value was “Dn-reg 11-KT”. The “LMB EST--SEASONAL_64 differentially expressed by” value was “up-reg DHT;”, the “LMB EST--SEASONAL_72 differentially expressed by” value was “Dn-reg DHT;” and the “LMB EST--SEASONAL_F17 differentially expressed by” value was “Dn-reg 11-KT”. For the same compound, the “LMB EST-SEASONAL_55 differentially expressed by” value was “Dn-reg 11-KT;”, the “LMB EST-SEASONALf17 differentially expressed by” value was “down by 11KT” and the “LMB RIKEN 1110001M01 differentially expressed by” value was “up by 11KT;”. For the same compound, the “LMB_ALPHA-TUBULIN (alpha tubulin) differentially expressed by” value was “Dn-reg 11-kt;”, the “LMB_COMPLEMENT-C3 (Complement C3 precursor) differentially expressed by” value was “Dn-reg DHT;” and the “LMB_ER-GAMMA ESTROGEN RECEPTOR GAMMA differentially expressed by (11-KT)” value was “Dn-reg 11-KT;”. For the same compound, the “LMB_EST-SEASONAL_09 differentially expressed by” value was “up-reg DHT;”, the “LMB_EST-SEASONAL_11 differentially expressed by” value was “dn-reg 11-KT” and the “LMB_EST-SEASONAL_51 differentially expressed by” value was “dn 11-KT;”. For the same compound, the “LMB_ESTDHT64 differentially expressed by” value was “up by 11KT”, the “LMB_ESTDHT_62 differentially expressed by” value was “up-reg DHT;” and the “LMB_LDL RC (LDL receptor) differentially expressed by” value was “Dn-reg DHT;”. The “LMB_RXR INTERACT PROT (Retinoid X receptor interacting protein) differentially expressed by” value was “Dn-reg 11-KT;”, the “LMB_SOL-CAR-25A#5 (solute carrier family 25 alpha member 5) differentially expressed by” value was “up-reg DHT;” and the “LMB_SSAT (SSAT) differentially expressed by” value was “up-reg DHT;”. The “LMB_WARM-WATER ACC PROTEIN (Warm water acclimation-related protein) differentially expressed by” value was “up-reg 11-KT”, the “LMB_ZPC1 (ZPC1) differentially expressed by” value was “up-reg DHT;” and the “LMB_ZPC4 (ZPC4) differentially expressed by” value was “up-reg DHT;”. The “PTTP (LOC O10) change” value was “up-”, the “RETINOL DEHYDROGENASE (LOC M11) change” value was “up (Those genes which changed by 2-fold or more were graphed)” and the “RIKEN 1110001M01 (LOC O11) change” value was “up (Those genes which changed by 2-fold or more were graphed)”. The “RXR INTERACTING PROT (LOC L11) change” value was “down”, the “SOLUTE CARRIER (LOC B13) change” value was “up (Those genes which changed by 2-fold or more were graphed)” and the “SSAT (LOC C13) change” value was “up (Those genes which changed by 2-fold or more were graphed)”. For the same compound, the “TFIID (change to liver regeration related protein) (LOC M12) change” value was “down”, the “VTG PRECURSOR (LOC D14) change” value was “up (Those genes which changed by 2-fold or more were graphed)” and the “VTG RC (LOC M14) change” value was “down”. For the same compound, the “ZPC1 (LOC H14) change” value was “up (Those genes which changed by 2-fold or more were graphed)”, the “ZPC4 (LOC I14) change” value was “up (Those genes which changed by 2-fold or more were graphed)” and the “warm water acclim (LOC E14) change” value was “up (Those genes which changed by 2-fold or more were graphed)”.
